Laboratory results taken from patent publication US20250282768A1 (Janssen Pharmaceutica NV, priority 2022, published 2025).

tested on: p-IKKa levels in L363 (NIK translocated multiple myeloma) cells; assay: Assay 2: Effect of compounds on p-IKKa levels in L363 (NIK translocated multiple myeloma) cells; type: cell-based; conditions: Homo sapiens, L-363, 6 h, read-out: Assay 2 IC50 (nM), p-IKKa (Ser 176/180) in BAFF stimulated L363 cells with MG132, 6 h; average if tested more than once
Procedure: Assay 2: Effect of Compounds on p-IKKa Levels in L363 (NIK Translocated Multiple Myeloma) Cells
All compounds tested were dissolved and serially diluted in DMSO, 1:3 dilution for 11 points in an Echo compatible plate. 100% DMSO was added to columns 12 and 24 of the plate to serve as high and low signal controls. This compound plate was used to spot 20 nL of compound or DMSO into a Greiner 384 well TC plate (781080). The final DMSO concentration was 0.3% (v/v) in cell assays. Human L363 cells (ATCC) were cultured in RPM11640 medium supplemented with GlutaMax, non-essential amino acids, sodium pyruvate and 10% fetal bovine serum. Cells were routinely maintained at densities of 0.2×10^6 cells per ml—2×10^6 cells per mL at 37° C. in a humidified 5% CO2 atmosphere incubator. Cells were passaged twice a week splitting back to obtain the low density. The day before the assay, cells were washed twice in HBSS (Hank's Balanced Salt Solution), resuspended in Dulbecco's Modified Eagle Medium (DMEM)+0.5% IgG and protease free BSA (Jackson Immuno Research Laboratories), +/−250 ng/ml recombinant human B-cell activating factor (BAFF/BLyS/TNFSF13B) and incubated overnight at 37° C. in a humidified 5% CO2 atmosphere (bulk stimulation with or without BAFF). The next day, the cell concentration was adjusted to 1×10^7 cells/ml in DMEM+/−250 ng/ml BAFF +/−10 μM MG132 and plated at 10 μl/well into compound or DMSO spotted 384 well TC plates. Seeded cells were incubated at 37° C. in a humidified 5% CO2 atmosphere for 6 h. After 6 h, the plates were removed from the incubator and cell lysis was achieved by the addition of 2.5 μl 5×lysis buffer containing protease and phosphatase inhibitors, followed by shaking on a plate shaker at room temperature for 15 min. At the end of this incubation, lysed cells were sequentially treated and incubated with acceptor and donor bead mixes according to the manufacturer's protocol for a 1 plate/2-incubation suspension cell assay (AlphaLISA SureFire Ultra p-IKKa (Ser 176/180) Assay Kit (Perkin Elmer). Plates were read using an EnVision Multilabel Plate Reader (Perkin Elmer). Within an experiment, a concentration response curve for each compound was run in duplicate. The signal obtained in the test wells was normalized using high signal (BAFF stimulated cells, DMSO, MG132) and low signal (unstimulated cells, DMSO) controls. To determine the IC50, a sigmoidal curve was fitted to the plot of % inhibition versus Log10 compound concentration.

**Q.** Which IC50 does the source give for `CN1CC[C@@](O)(c2cc(-c3cccc(-c4ccnc(NC(c5cnn(C)c5)C(F)(F)F)n4)n3)no2)C1=O` (mixture of isomers) [Example 96, (R)-3-Hydroxy-1-methyl-3-(3-(6-(2-(((RS)-2,2,2-trifluoro-1-(1-methyl-1H-pyrazol-4-yl)ethyl)amino)pyrimidin-4-yl)pyridin-2-yl)isoxazol-5-yl)pyrrolidin-2-one] here?
**A.** Its IC50 is 50 to 500 nM.

**Q.** For `CN1CC[C@@](O)(c2cc(-c3cccc(-c4ccnc(NC5CCN(C6CC6)C5)n4)n3)no2)C1=O` (mixture of isomers) [Example 448, (3R)-3-(3-(6-(2-((1-Cyclopropylpyrrolidin-3-yl)amino)pyrimidin-4-yl)pyridin-2-yl)isoxazol-5-yl)-3-hydroxy-1-methylpyrrolidin-2-one], which IC50 is on record?
**A.** The IC50 was > 500 nM.

**Q.** With `CN1CC[C@@](O)(c2cc(-c3cccc(-c4ccnc(NC5CCSC5)n4)n3)no2)C1=O` (mixture of isomers) [Example 456, (3R)-3-Hydroxy-1-methyl-3-(3-(6-(2-((tetrahydrothiophen-3-yl)amino)pyrimidin-4-yl)pyridin-2-yl)isoxazol-5-yl)pyrrolidin-2-one] as the compound, how does the IC50 read?
**A.** Its IC50 is 50 to 500 nM.

**Q.** How did the IC50 turn out when `CN1CC[C@@](O)(c2cc(-c3cccc(-c4ccnc(NC5COCC(F)(F)C5)n4)n3)no2)C1=O` (mixture of isomers) [Example 459, (3R)-3-(3-(6-(2-((5,5-Difluorotetrahydro-2H-pyran-3-yl)amino)pyrimidin-4-yl)pyridin-2-yl)isoxazol-5-yl)-3-hydroxy-1-methylpyrrolidin-2-one] was run?
**A.** Its IC50 is 50 to 500 nM.

**Q.** How did the IC50 turn out when `COC(CNc1nccc(-c2cccc(-c3cc([C@]4(O)CCN(C)C4=O)on3)n2)n1)C(F)(F)F` (mixture of isomers) [Example 461, (3R)-3-Hydroxy-1-methyl-3-(3-(6-(2-((3,3,3-trifluoro-2-methoxypropyl)amino)pyrimidin-4-yl)pyridin-2-yl)isoxazol-5-yl)pyrrolidin-2-one] was run?
**A.** The IC50 was 50 to 500 nM.

**Q.** For `CN1CC[C@@](O)(c2cc(-c3cccc(-c4ccnc(NC5COCC5(F)F)n4)n3)no2)C1=O` (mixture of isomers) [Example 465, (3R)-3-(3-(6-(2-((4,4-Difluorotetrahydrofuran-3-yl)amino)pyrimidin-4-yl)pyridin-2-yl)isoxazol-5-yl)-3-hydroxy-1-methylpyrrolidin-2-one], which IC50 is on record?
**A.** Its IC50 is 50 to 500 nM.

**Q.** With `CN1CC[C@@](O)(c2cc(-c3cccc(-c4ccnc(NC5CCOc6ncccc65)n4)n3)no2)C1=O` (mixture of isomers) [Example 472, (3R)-3-(3-(6-(2-((3,4-Dihydro-2H-pyrano[2,3-b]pyridin-4-yl)amino)pyrimidin-4-yl)pyridin-2-yl)isoxazol-5-yl)-3-hydroxy-1-methylpyrrolidin-2-one] as the compound, how does the IC50 read?
**A.** Its IC50 is 50 to 500 nM.

**Q.** With `CC1CCCCC1Nc1nccc(-c2cccc(-c3cc([C@]4(O)CCN(C)C4=O)on3)n2)n1` (mixture of isomers) [Example 341, (3R)-3-Hydroxy-1-methyl-3-(3-(6-(2-(((rac)-2-methylcyclohexyl)amino)pyrimidin-4-yl)pyridin-2-yl)isoxazol-5-yl)pyrrolidin-2-one] as the compound, how does the IC50 read?
**A.** The IC50 was 50 to 500 nM.

**Q.** For `CC1CC(Nc2nccc(-c3cccc(-c4cc([C@]5(O)CCN(C)C5=O)on4)n3)n2)CO1` (mixture of isomers) [Example 343, (R)-3-Hydroxy-1-methyl-3-(3-(6-(2-(((rac)-5-methyltetrahydrofuran-3-yl)amino)pyrimidin-4-yl)pyridin-2-yl)isoxazol-5-yl)pyrrolidin-2-one], which IC50 is on record?
**A.** Its IC50 is 50 to 500 nM.

**Q.** `C[C@@H](Nc1nccc(-c2cccc(-c3cc([C@]4(O)CCN(C)C4=O)on3)n2)n1)c1ccnn1C` (single isomer, unassigned) [Example 67] was tested. Which IC50 did it give?
**A.** Its IC50 is 50 to 500 nM.

**Q.** `C[C@H](Nc1nccc(-c2cccc(-c3cc([C@]4(O)CCN(C)C4=O)on3)n2)n1)c1ccnn1C` (single isomer, unassigned) [Example 68] was tested. Which IC50 did it give?
**A.** Its IC50 is 50 to 500 nM.

**Q.** For `C[C@@H](Nc1nccc(-c2cccc(-c3cc([C@]4(O)CCN(C)C4=O)on3)n2)n1)c1cnn(C)c1` (single isomer, unassigned) [Example 69], which IC50 is on record?
**A.** Its IC50 is < 50 nM.

**Q.** Which IC50 does the source give for `C[C@H](Nc1nccc(-c2cccc(-c3cc([C@]4(O)CCN(C)C4=O)on3)n2)n1)c1cnn(C)c1` (single isomer, unassigned) [Example 70] here?
**A.** The IC50 was > 500 nM.

**Q.** With `CN1CC[C@@](O)(c2cnn(-c3cccc(-c4ccnc(Nc5cnn(C)c5)n4)n3)c2)C1=O` (single isomer, unassigned) [Example 76] as the compound, how does the IC50 read?
**A.** Its IC50 is > 500 nM.

**Q.** Which IC50 does the source give for `CN1CC[C@](O)(c2cnn(-c3cccc(-c4ccnc(Nc5cnn(C)c5)n4)n3)c2)C1=O` (single isomer, unassigned) [Example 77] here?
**A.** The IC50 was 50 to 500 nM.

**Q.** Which IC50 does the source give for `CN1CC[C@@](O)(c2cnc(-c3cccc(-c4ccnc(Nc5ccn(C)n5)n4)n3)s2)C1=O` (single isomer, unassigned) [Example 78] here?
**A.** The IC50 was > 500 nM.

**Q.** With `CN1CC[C@](O)(c2cnc(-c3cccc(-c4ccnc(Nc5ccn(C)n5)n4)n3)s2)C1=O` (single isomer, unassigned) [Example 79] as the compound, how does the IC50 read?
**A.** Its IC50 is > 500 nM.

**Q.** Which IC50 does the source give for `CN1CC[C@](O)(c2csc(-c3cccc(-c4ccnc(Nc5ccn(C)n5)n4)n3)n2)C1=O` (single isomer, unassigned) [Example 80] here?
**A.** Its IC50 is > 500 nM.

**Q.** How did the IC50 turn out when `CN1CC[C@@](O)(c2csc(-c3cccc(-c4ccnc(Nc5ccn(C)n5)n4)n3)n2)C1=O` (single isomer, unassigned) [Example 81] was run?
**A.** The IC50 was > 500 nM.

**Q.** Which IC50 does the source give for `CN1CC[C@@](O)(c2ncc(-c3cccc(-c4ccnc(Nc5ccn(C)n5)n4)n3)s2)C1=O` (single isomer, unassigned) [Example 82] here?
**A.** Its IC50 is > 500 nM.

**Q.** Which IC50 does the source give for `CN1CC[C@](O)(c2ncc(-c3cccc(-c4ccnc(Nc5ccn(C)n5)n4)n3)s2)C1=O` (single isomer, unassigned) [Example 83] here?
**A.** The IC50 was 50 to 500 nM.

**Q.** With `CN1CC[C@](O)(c2cc(-c3cccc(-c4ccnc(Nc5ccn(C)n5)n4)n3)[nH]n2)C1=O` (single isomer, unassigned) [Example 84] as the compound, how does the IC50 read?
**A.** The IC50 was > 500 nM.

**Q.** With `CN1CC[C@@](O)(c2cc(-c3cccc(-c4ccnc(Nc5ccn(C)n5)n4)n3)[nH]n2)C1=O` (single isomer, unassigned) [Example 85] as the compound, how does the IC50 read?
**A.** The IC50 was 50 to 500 nM.

**Q.** How did the IC50 turn out when `CN1CC[C@](O)(c2cn(-c3cccc(-c4ccnc(Nc5ccn(C)n5)n4)n3)cn2)C1=O` (single isomer, unassigned) [Example 87] was run?
**A.** The IC50 was > 500 nM.

**Q.** With `CN1CC[C@@](O)(c2cc(-c3cccc(-c4ccnc(Nc5cnn(C)c5Cl)n4)n3)n[nH]2)C1=O` (single isomer, unassigned) [Example 104] as the compound, how does the IC50 read?
**A.** The IC50 was > 500 nM.

**Q.** With `CN1CC[C@](O)(c2cc(-c3cccc(-c4ccnc(Nc5cnn(C)c5Cl)n4)n3)n[nH]2)C1=O` (single isomer, unassigned) [Example 105] as the compound, how does the IC50 read?
**A.** Its IC50 is 50 to 500 nM.

**Q.** Which IC50 does the source give for `CN1CC[C@](O)(c2nccn2-c2cccc(-c3ccnc(Nc4cnn(C)c4Cl)n3)n2)C1=O` (single isomer, unassigned) [Example 106, (*S)-3-(1-(6-(2-((5-Chloro-1-methyl-1H-pyrazol-4-yl)amino)pyrimidin-4-yl)pyridin-2-yl)-1H-imidazol-2-yl)-3-hydroxy-1-methylpyrrolidin-2-one] here?
**A.** Its IC50 is > 500 nM.

**Q.** How did the IC50 turn out when `CN1CC[C@@](O)(c2cn(-c3cccc(-c4ccnc(Nc5cnn(C)c5Cl)n4)n3)cn2)C1=O` (single isomer, unassigned) [Example 107] was run?
**A.** The IC50 was > 500 nM.

**Q.** How did the IC50 turn out when `CN1CC[C@](O)(c2cn(-c3cccc(-c4ccnc(Nc5cnn(C)c5Cl)n4)n3)cn2)C1=O` (single isomer, unassigned) [Example 108] was run?
**A.** Its IC50 is 50 to 500 nM.

**Q.** How did the IC50 turn out when `C[C@@H]1Cn2nc(Nc3nccc(-c4cccc(-c5cc([C@]6(O)CCN(C)C6=O)on5)n4)n3)cc2CO1` (single isomer, unassigned) [Example 114, (R)-3-Hydroxy-1-methyl-3-(3-(6-(2-(((*R)-6-methyl-6,7-dihydro-4H-pyrazolo[5,1-c][1,4]oxazin-2-yl)amino)pyrimidin-4-yl)pyridin-2-yl)isoxazol-5-yl)pyrrolidin-2-one] was run?
**A.** The IC50 was < 50 nM.

**Q.** For `C[C@H]1Cn2nc(Nc3nccc(-c4cccc(-c5cc([C@]6(O)CCN(C)C6=O)on5)n4)n3)cc2CO1` (single isomer, unassigned) [Example 115, (R)-3-Hydroxy-1-methyl-3-(3-(6-(2-(((*S)-6-methyl-6,7-dihydro-4H-pyrazolo[5,1-c][1,4]oxazin-2-yl)amino)pyrimidin-4-yl)pyridin-2-yl)isoxazol-5-yl)pyrrolidin-2-one], which IC50 is on record?
**A.** The IC50 was 50 to 500 nM.
